In ChEMBL document CHEMBL1201862, “PubChem BioAssay data set” (2004):
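96-well plates; 48 h exposure; 5 concentrations. Endpoints by linear interpolation between flanking doses. Not reached: highest tested concentration assigned. GI50 = concentration required for 50% inhibition of growth.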 The source made the active and inactive calls. Rule as the data show it: active = GI50 up to about 1.1 µM and inactive = higher.

How the values were obtained:
Test in all cases: inhibition of tumour cell growth, NCI panel, 48 h
[1] = test system: HOP-62
[2] = test system: U-251
[3] = test system: MOLT-4
[4] = test system: SK-MEL-5
[5] = test system: HCC 2998
[6] = test system: LOX IMVI
[7] = test system: SF-295
[8] = test system: NCI-H23
[9] = test system: OVCAR-5
[10] = test system: NCI-H226
[11] = test system: SK-MEL-2
[12] = test system: TK-10
[13] = test system: HT-29
[14] = test system: SF-268
[15] = test system: RXF 393
[16] = test system: ACHN

Measured: GI50

Cc1cc(Cl)cc2c1NC(=O)C2(O)CC(=O)c1ccc(Br)cc1 (centres undefined)
inactive: [1] > 100 µM | [2] 79.4 µM | [3] 20.5 µM | [4] 25 µM | [5] > 100 µM | [6] 38.5 µM | [7] 46.9 µM | [8] 43.4 µM | [9] > 100 µM | [10] > 100 µM | [11] > 100 µM | [12] > 73.8 µM | [13] 49.9 µM | [14] > 77.8 µM | [15] 21.8 µM | [16] 39.4 µM

CCOC(=O)c1c[nH]c2c(ccc3nn(C)nc32)c1=O
inactive: [1] > 100 µM | [2] 25.8 µM | [3] > 100 µM | [4] > 100 µM | [5] > 100 µM | [6] 10 µM | [7] > 100 µM | [8] > 100 µM | [9] > 100 µM | [10] > 100 µM | [11] 19.4 µM | [12] > 100 µM | [13] > 100 µM | [14] > 100 µM | [15] 30.4 µM | [16] > 100 µM

Cc1c(C(=O)CC(=O)C(=O)Nc2ccc(Cl)c(Cl)c2)[n+]([O-])c2ccccc2[n+]1[O-]
inactive: [1] 64.4 µM | [2] 26.8 µM | [3] 20.8 µM | [4] 19.5 µM | [5] 33 µM | [6] 21.1 µM | [7] 41.7 µM | [8] 28.6 µM | [9] 36.4 µM | [10] > 100 µM | [11] 26.9 µM | [12] 46.5 µM | [13] 29.9 µM | [14] 29.1 µM | [15] 27.4 µM | [16] 20.3 µM

CC1=C(C(=O)Nc2cc(=O)n(C)c(=O)n2C)C(c2cccc([N+](=O)[O-])c2)C(C(=O)Nc2cc(=O)n(C)c(=O)n2C)=C(C)N1
inactive: [1] > 100 µM | [2] > 100 µM | [3] 42.6 µM | [4] 74.6 µM | [5] 31.5 µM | [6] > 100 µM | [7] > 100 µM | [8] > 100 µM | [9] > 100 µM | [10] > 100 µM | [11] > 100 µM | [12] > 100 µM | [13] > 100 µM | [14] > 100 µM | [15] > 100 µM | [16] 89.7 µM

COC(=O)CC(NC(=O)OCc1ccccc1)C(C(=O)OCc1ccccc1)C1(C)OCCO1 (centres undefined)
inactive: [1] 47.5 µM | [2] 33.1 µM | [3] 20.5 µM | [4] 17.5 µM | [5] 61.9 µM | [6] 28.9 µM | [7] 32.4 µM | [8] 26.4 µM | [10] 22.5 µM | [11] 20 µM | [12] 57.1 µM | [13] 53.6 µM | [14] 50.1 µM | [15] 21.4 µM | [16] 34.9 µM

CC1(O)C(C)(O)C2(C)O[Te]3(OC12C)OC1(C)C(C)(O)C(C)(O)C1(C)O3 (centres undefined)
inactive: [1] > 100 µM | [2] 10.8 µM | [3] 11.8 µM | [4] 15 µM | [5] 42.7 µM | [6] 4.41 µM | [7] 15.3 µM | [8] 14.8 µM | [9] 15.3 µM | [10] 29.4 µM | [11] 44.6 µM | [12] 23.1 µM | [13] 27.3 µM | [14] > 10 µM | [15] 12.4 µM | [16] 31.3 µM

N#C/C(=C\c1c(O)cc(O)cc1O)C(N)=O
inactive: [1] > 100 µM | [2] > 100 µM | [3] > 100 µM | [4] > 100 µM | [5] > 100 µM | [6] > 100 µM | [7] > 100 µM | [8] > 100 µM | [9] > 100 µM | [10] > 100 µM | [11] > 100 µM | [12] > 100 µM | [13] > 100 µM | [14] > 100 µM | [15] > 100 µM | [16] > 100 µM

O=C1CCCC2COc3ccc(O)c1c32 (centres undefined)
inactive: [1] > 100 µM | [2] > 100 µM | [3] > 100 µM | [4] > 100 µM | [5] > 100 µM | [7] > 100 µM | [8] > 100 µM | [9] > 100 µM | [10] > 100 µM | [11] > 100 µM | [12] > 100 µM | [13] > 100 µM | [14] > 100 µM | [15] > 100 µM | [16] > 100 µM

O=C1CCC2(CC1)SCCCS2
inactive: [1] > 100 µM | [2] > 100 µM | [4] > 100 µM | [5] > 100 µM | [6] > 100 µM | [7] > 100 µM | [8] > 100 µM | [9] > 100 µM | [10] > 100 µM | [11] > 100 µM | [12] > 100 µM | [13] > 100 µM | [14] > 100 µM | [15] > 100 µM | [16] 40 µM

Cn1ccnc1CCc1c(Cl)cccc1Cl
inactive: [1] > 100 µM | [2] > 100 µM | [3] > 100 µM | [4] > 100 µM | [6] > 100 µM | [7] > 100 µM | [8] > 100 µM | [9] > 100 µM | [10] > 100 µM | [11] > 100 µM | [12] > 100 µM | [13] > 100 µM | [14] > 100 µM | [15] > 100 µM | [16] > 100 µM

CCCC(C)C[C@@H](C)CC(C)/C=C(\C)c1oc(=O)c(C)c(O)c1C.CC[C@@H](C)C[C@@H](C)C[C@@H](C)/C=C(\C)c1oc(=O)c(C)c(O)c1C (some centres undefined)
inactive: [1] 18.7 µM | [2] 14.5 µM | [5] 12.9 µM | [6] 17.1 µM | [7] 12.8 µM | [8] 10 µM | [9] 6.19 µM | [10] 15.5 µM | [11] 9.48 µM | [12] 19.5 µM | [13] 13.9 µM | [14] 14.1 µM | [15] 13.4 µM | [16] 5.57 µM

CCCCCCN(N)C(=O)CC#N
inactive: [1] > 100 µM | [2] 74.5 µM | [3] 35.5 µM | [4] 70.6 µM | [5] > 100 µM | [6] 72.1 µM | [8] 65.6 µM | [9] 52.2 µM | [10] > 100 µM | [12] > 100 µM | [13] > 100 µM | [14] > 100 µM | [15] 16.9 µM | [16] 95.5 µM

CCOC(=O)c1cnc2cc3cccccc3n2c1=O
inactive: [1] > 100 µM | [2] > 100 µM | [3] > 100 µM | [5] > 100 µM | [6] > 100 µM | [7] > 100 µM | [8] > 100 µM | [9] > 100 µM | [10] > 100 µM | [11] > 100 µM | [12] > 100 µM | [13] > 100 µM | [14] > 100 µM | [15] > 100 µM | [16] > 100 µM
